Reference: DBAASP
Converted amounts (≈) assume the structure as drawn.

Legend:
Experiment in all cases: ≥ marks a high value that may be exact or a test limit, other limits are often not marked, values filed in µg/mL are converted to µM
[1] = system: Escherichia coli ATCC 25922
[2] = system: Staphylococcus aureus ATCC 29213
[3] = system: Pseudomonas aeruginosa ATCC 27853
[4] = system: Staphylococcus aureus ATCC 25923

| Compound | MIC [1] | MIC [2] | MIC [3] | MIC [4] |
| --- | --- | --- | --- | --- |
| CC[C@H](C)[C@H](NC(=O)[C@@H](NC(=O)[C@@H](N)Cc1ccccc1)[C@@H](C)CC)C(=O)N[C@@H](Cc1c[nH]c2ccccc12)C(=O)N1CCC[C@H]1C(=O)N[C@@H](CC(C)C)C(=O)N[C@@H](CCCN=C(N)N)C(=O)N[C@@H](Cc1ccc(O)cc1)C(=O)N[C@@H](CCCN=C(N)N)C(=O)N[C@@H](CCCCN)C(N)=O [FIIWPLRYRK] | 180 µM (≈ 250 µg/mL) | 359 µM (≈ 500 µg/mL) | – | – |
| CC[C@H](C)[C@H](NC(=O)[C@H](CCSC)NC(=O)[C@H](C)NC(=O)[C@@H]1CCCN1C(=O)[C@@H](NC(=O)[C@@H](NC(=O)[C@H](CCCCN)NC(=O)[C@@H](NC(=O)[C@H](CC(C)C)NC(=O)CN)[C@@H](C)CC)[C@@H](C)CC)C(C)C)C(=O)N[C@H]1CSSC[C@@H](C(=O)O)NC(=O)[C@H](CCCCN)NC(=O)[C@H](CCCCN)NC(=O)[C@H]([C@@H](C)O)NC(=O)[C@H](C(C)C)NC(=O)[C@H](C)NC1=O [GLIKIVPAMICAVTKKC] | > 143 µM | > 143 µM | > 143 µM | – |
| CC(C)C[C@H](NC(=O)[C@H](CCCCN)NC(=O)[C@H](C)NC(=O)[C@H](CC(C)C)NC(=O)[C@H](CCCCN)NC(=O)[C@H](CCCCN)NC(=O)[C@H](C)NC(=O)[C@H](CC(C)C)NC(=O)[C@H](CCCCN)NC(=O)[C@H](C)NC(=O)[C@H](CC(C)C)NC(=O)[C@H](CCCCN)NC(=O)[C@H](CCCCN)NC(=O)[C@H](C)NC(=O)[C@H](CC(C)C)NC(=O)[C@H](CCCCN)NC(=O)[C@H](C)NC(=O)[C@H](CC(C)C)NC(=O)[C@@H](N)CCCCN)C(=O)N[C@@H](C)C(=O)N[C@@H](CCCCN)C(N)=O [KLAKLAKKLAKLAKKLAKLAK] | 4 µM (≈ 9.1 µg/mL) | – | 4 µM (≈ 9.1 µg/mL) | 4 µM (≈ 9.1 µg/mL) |
| CC(C)C[C@H](NC(=O)[C@H](CCCCN)NC(=O)[C@H](C)NC(=O)[C@H](CC(C)C)NC(=O)[C@@H](N)CCCCN)C(=O)N[C@@H](C)C(=O)N[C@@H](CCCCN)C(N)=O [KLAKLAK] | > 95 µM | – | > 95 µM | > 95 µM |
| CC(C)C[C@H](NC(=O)[C@H](CCCCN)NC(=O)[C@H](CC(C)C)NC(=O)[C@H](CC(C)C)NC(=O)[C@H](CCCCN)NC(=O)[C@H](CCCCN)NC(=O)[C@H](CC(=O)O)NC(=O)[C@H](CC(C)C)NC(=O)[C@H](CCCCN)NC(=O)[C@H](CC(C)C)NC(=O)[C@H](CC(C)C)NC(=O)[C@H](CCCCN)NC(=O)[C@H](CCCCN)NC(=O)[C@@H](N)CC(C)C)C(=O)N[C@@H](C)C(=O)NCC(=O)O [LKKLLKLDKKLLKLAG] | 10 µM (≈ 18.2 µg/mL) | > 40 µM | – | – |
| CC(=O)N[C@@H](CC(C)C)C(=O)N[C@@H](CCCCN)C(=O)N[C@@H](CCCCN)C(=O)N[C@@H](CC(C)C)C(=O)N[C@@H](CC(C)C)C(=O)N[C@@H](CCCCN)C(=O)N[C@@H](CC(C)C)C(=O)N[C@@H](CC(C)C)C(=O)N[C@@H](CCCCN)C(=O)N[C@@H](CCCCN)C(=O)N1CCC[C@H]1C(=O)N[C@@H](CC(C)C)C(=O)N[C@@H](CCCCN)C(=O)N[C@@H](CC(C)C)C(N)=O [LKKLLKLLKKPLKL] | 28.3 µM (≈ 48.6 µg/mL) | 40 µM (≈ 68.7 µg/mL) | – | – |
| CC(=O)N[C@@H](CC(C)C)C(=O)N[C@@H](CCCCN)C(=O)N[C@@H](CCCCN)C(=O)N[C@@H](CC(C)C)C(=O)N[C@@H](CC(C)C)C(=O)N[C@@H](CCCCN)C(=O)N[C@@H](CC(C)C)C(=O)N1CCC[C@H]1C(=O)N[C@@H](CCCCN)C(=O)N[C@@H](CCCCN)C(=O)N[C@@H](CC(C)C)C(=O)N[C@@H](CC(C)C)C(=O)N[C@@H](CCCCN)C(=O)N[C@@H](CC(C)C)C(N)=O [LKKLLKLPKKLLKL] | 56.6 µM (≈ 97.1 µg/mL) | > 80 µM | – | – |
| NC(=O)[C@H](Cc1c[nH]c2ccccc12)NC(=O)[C@H](CCCN=C(N)N)NC(=O)[C@H](Cc1ccc(O)cc1)NC(=O)[C@H](CCCN=C(N)N)NC(=O)[C@H](Cc1c[nH]c2ccccc12)NC(=O)[C@@H](N)CCCN=C(N)N [RWRYRW] | 48.9 µM (≈ 50 µg/mL) | – | 78.3 µM (≈ 79.9 µg/mL) | 9.78 µM (≈ 9.99 µg/mL) |
| CSCC[C@H](NC(=O)[C@H](CCCN=C(N)N)NC(=O)[C@@H](N)Cc1ccc(O)cc1)C(=O)N[C@@H](Cc1c[nH]c2ccccc12)C(=O)N[C@@H](CCCN=C(N)N)C(=O)N[C@@H](Cc1c[nH]c2ccccc12)C(=O)N[C@@H](C)C(=O)N[C@@H](Cc1c[nH]c2ccccc12)C(=O)N[C@@H](CCCN=C(N)N)C(=O)N[C@@H](Cc1c[nH]c2ccccc12)C(=O)N[C@@H](CCCN=C(N)N)C(N)=O [YRMWRWAWRWR] | 5.7 µM (≈ 9.99 µg/mL) | – | 11.4 µM (≈ 20 µg/mL) | 1.43 µM (≈ 2.5 µg/mL) |

More lines, now with the values ahead:

| MIC [1] | MIC [2] | MIC [3] | MIC [4] | Compound |
| --- | --- | --- | --- | --- |
| > 489 µM | > 489 µM | – | – | CC(C)C[C@H](NC(=O)[C@H](C)NC(=O)[C@H](Cc1ccc(O)cc1)NC(=O)[C@H](CC(C)C)NC(=O)[C@H](CCCN=C(N)N)NC(=O)[C@H](C)NC(=O)[C@H](CC(C)C)NC(=O)[C@H](CO)NC(=O)[C@H](C)NC(=O)[C@H](CC(C)C)NC(=O)[C@@H](N)CC(=O)O)C(=O)N[C@@H](C)C(=O)N[C@@H](CCCN=C(N)N)C(N)=O [DLASLARLYALAR] |
| 5 µM (≈ 8.39 µg/mL) | > 40 µM | – | – | CC[C@H](C)[C@H](NC(=O)[C@H](CCCN=C(N)N)NC(=O)[C@H](CCC(N)=O)NC(=O)[C@@H](NC(=O)[C@H](C)NC(=O)[C@H](CCCN=C(N)N)NC(=O)[C@H](CCCCN)NC(=O)[C@@H](N)Cc1ccccc1)C(C)C)C(=O)N[C@@H](CCCCN)C(=O)N[C@@H](CC(=O)O)C(=O)N[C@@H](Cc1ccccc1)C(=O)N[C@@H](CC(C)C)C(=O)N[C@@H](CCCN=C(N)N)C(=O)O [FKRAVQRIKDFLR] |
| > 100 µM | – | > 100 µM | > 100 µM | CC(C)[C@H](NC(=O)[C@H](CC(=O)O)NC(=O)[C@H](CO)NC(=O)[C@@H](N)CCCCN)C(=O)N[C@@H](CCCN=C(N)N)C(=O)N[C@@H](CCCN=C(N)N)C(=O)N[C@@H](Cc1c[nH]c2ccccc12)C(=O)N[C@@H](CCCN=C(N)N)C(=O)N[C@@H](CO)C(=O)N[C@@H](CCCN=C(N)N)C(=O)N[C@@H](Cc1ccc(O)cc1)C(N)=O [KSDVRRWRSRY] |
| 5 µM (≈ 8.89 µg/mL) | 5 µM (≈ 8.89 µg/mL) | – | – | CC(C)C[C@H](NC(=O)[C@H](C)NC(=O)[C@H](CCCCN)NC(=O)[C@H](CCCCN)NC(=O)[C@@H](N)CC(C)C)C(=O)N[C@@H](CCCCN)C(=O)N[C@@H](CC(C)C)C(=O)N[C@@H](CC(C)C)C(=O)N[C@@H](CCCCN)C(=O)N[C@@H](CCCCN)C(=O)N[C@@H](CC(C)C)C(=O)N[C@@H](CC(C)C)C(=O)N[C@@H](CCCCN)C(=O)N[C@@H](CC(C)C)C(=O)N[C@@H](C)C(=O)NCC(=O)O [LKKALKLLKKLLKLAG] |
| 5 µM (≈ 8.89 µg/mL) | 5 µM (≈ 8.89 µg/mL) | – | – | CC(C)C[C@H](NC(=O)[C@H](C)NC(=O)[C@H](CCCCN)NC(=O)[C@H](CCCCN)NC(=O)[C@H](CC(C)C)NC(=O)[C@H](CC(C)C)NC(=O)[C@H](CCCCN)NC(=O)[C@H](CC(C)C)NC(=O)[C@H](CC(C)C)NC(=O)[C@H](CCCCN)NC(=O)[C@H](CCCCN)NC(=O)[C@@H](N)CC(C)C)C(=O)N[C@@H](CCCCN)C(=O)N[C@@H](CC(C)C)C(=O)N[C@@H](C)C(=O)NCC(=O)O [LKKLLKLLKKALKLAG] |
| > 100 µM | – | > 100 µM | > 100 µM | CC(C)C[C@H](NC(=O)[C@H](CC(=O)O)NC(=O)[C@@H](NC(=O)[C@H](CCCCN)NC(=O)[C@H](CC(C)C)NC(=O)[C@@H](N)CCC(N)=O)C(C)C)C(=O)N[C@@H](Cc1c[nH]c2ccccc12)C(=O)NCC(=O)N[C@H](C(=O)N[C@@H](CCCN=C(N)N)C(N)=O)[C@@H](C)O [QLKVDLWGTR] |
